Results as given in ChEMBL document CHEMBL4417633, “Inhibitory polypeptides specific to WNT inhibitors” (2017).
Where a SMILES comes first, the peptide text is derived from it.

How the values were obtained:
[1] = biological target: T1, Dickkopf WNT-signaling pathway inhibitor 1 (Rattus norvegicus, UniProt A6I0Z0); experiment: Inhibition of biotin-labeled rat recombinant DKK1 assessed as reduction in DKK1 interaction with LRP-6/Fc incubated overnight by chemiluminescence based Alpha-screen assay
T1 sequence (A6I0Z0 whole entry): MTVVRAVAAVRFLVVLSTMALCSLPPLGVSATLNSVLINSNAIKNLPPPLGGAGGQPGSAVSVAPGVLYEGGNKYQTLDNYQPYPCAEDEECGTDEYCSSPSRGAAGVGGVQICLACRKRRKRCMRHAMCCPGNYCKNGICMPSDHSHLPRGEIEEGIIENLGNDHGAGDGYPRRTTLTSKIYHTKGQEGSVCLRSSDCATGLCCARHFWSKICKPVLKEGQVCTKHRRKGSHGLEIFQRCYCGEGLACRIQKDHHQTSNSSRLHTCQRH

[2] = biological target: T2, Dickkopf-related protein 1 (Homo sapiens, UniProt O94907); experiment: Inhibition of biotin-labeled human recombinant DKK1 assessed as reduction in DKK1 interaction with LRP-6/Fc incubated overnight by chemiluminescence based Alpha-screen assay
T2 sequence (O94907 whole entry): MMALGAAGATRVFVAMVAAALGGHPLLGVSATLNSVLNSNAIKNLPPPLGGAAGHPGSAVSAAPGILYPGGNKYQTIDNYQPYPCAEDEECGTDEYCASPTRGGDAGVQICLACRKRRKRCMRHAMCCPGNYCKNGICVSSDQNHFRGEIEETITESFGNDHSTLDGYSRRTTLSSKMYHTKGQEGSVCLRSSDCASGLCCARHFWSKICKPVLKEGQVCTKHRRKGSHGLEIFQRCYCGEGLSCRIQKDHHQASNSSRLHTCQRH

| Structure (SMILES) | IC50 [1] | IC50 [2] |
| --- | --- | --- |
| CSCC[C@H](NC(=O)[C@@H]1CCCN1C(=O)[C@H](Cc1ccc(O)cc1)NC(=O)[C@H](CS)NC(=O)[C@H](Cc1cnc[nH]1)NC(=O)[C@H](CC(N)=O)NC(=O)[C@H](CCCNC(=N)N)NC(=O)[C@H](CC(N)=O)NC(=O)[C@H](CCCNC(=N)N)NC(=O)[C@H](CS)NC(=O)[C@H](CCCNC(=N)N)NC(=O)[C@H](Cc1ccccc1)NC(=O)[C@H](Cc1ccc(O)cc1)NC(=O)[C@H](CO)NC(=O)[C@H](C)NC(=O)[C@@H]1CCCN1C(=O)[C@@H](N)CS)C(=O)N[C@@H](CCC(=O)O)C(=O)N[C@@H](Cc1c[nH]c2ccccc12)C(=O)N[C@@H](CCCNC(=N)N)C(=O)N[C@@H](CS)C(=O)N[C@@H](CC(=O)O)C(=O)NCC(=O)N[C@@H](Cc1ccccc1)C(=O)N1CCC[C@H]1C(=O)N[C@@H](CC(=O)O)C(=O)N[C@@H](CS)C(=O)N[C@@H](CCC(=O)O)C(=O)N[C@@H](CC(=O)O)C(=O)N[C@@H](C)C(=O)N[C@@H](CO)C(=O)N[C@@H](CC(=O)O)C(=O)N[C@@H](CCC(=O)O)C(=O)N[C@@H](CCCCN)C(=O)NCC(=O)N[C@@H](CS)C(=O)N1CCC[C@H]1C(=O)N[C@@H](Cc1ccc(O)cc1)C(=O)N[C@@H](CCCNC(=N)N)C(=O)N[C@H](C(=O)O)[C@@H](C)O (H-CPASYFRCRNRNHCYPMEWRCDGFPDCEDASDEKGCPYRT-OH) | ≤ 1 nM | ≤ 1 nM |
| CC[C@H](C)[C@H](NC(=O)[C@H](CC(C)C)NC(=O)[C@@H]1CCCN1C(=O)[C@H](Cc1ccccc1)NC(=O)[C@H](CS)NC(=O)[C@H](CCSC)NC(=O)[C@H](CCCCN)NC(=O)[C@H](CC(=O)O)NC(=O)[C@@H]1CCCN1C(=O)[C@H](CS)NC(=O)[C@H](CCSC)NC(=O)[C@H](Cc1ccccc1)NC(=O)[C@H](CCC(=O)O)NC(=O)[C@H](CC(N)=O)NC(=O)[C@H](CC(C)C)NC(=O)[C@@H]1CCCN1C(=O)[C@@H](N)CS)C(=O)N[C@@H](Cc1ccccc1)C(=O)N[C@@H](CC(C)C)C(=O)N[C@@H](CS)C(=O)N[C@@H](CC(=O)O)C(=O)NCC(=O)N[C@@H](CCC(=O)O)C(=O)N[C@@H](CC(N)=O)C(=O)N[C@@H](CC(=O)O)C(=O)N[C@@H](CS)C(=O)N[C@@H](Cc1cnc[nH]1)C(=O)N[C@@H](CC(=O)O)C(=O)NCC(=O)N[C@@H](CO)C(=O)N[C@@H](CC(=O)O)C(=O)N[C@@H](CCC(=O)O)C(=O)N[C@@H](C)C(=O)N[C@@H](Cc1ccc(O)cc1)C(=O)N[C@@H](CS)C(=O)N1CCC[C@H]1C(=O)N[C@@H](CO)C(=O)N[C@@H](CCCNC(=N)N)C(=O)N[C@H](C(=O)O)[C@@H](C)O (H-CPLNEFMCPDKMCFPLIFLCDGENDCHDGSDEAYCPSRT-OH) | ≤ 1 nM | ≤ 1 nM |
| CC[C@H](C)[C@H](NC(=O)[C@H](CC(N)=O)NC(=O)CNC(=O)[C@H](CS)NC(=O)[C@H](CCC(N)=O)NC(=O)[C@H](Cc1ccccc1)NC(=O)[C@H](Cc1ccc(O)cc1)NC(=O)[C@H](CO)NC(=O)[C@@H]1CCCN1C(=O)[C@@H]1CCCN1C(=O)[C@@H](N)CS)C(=O)N[C@@H](CC(N)=O)C(=O)N[C@@H](Cc1cnc[nH]1)C(=O)N[C@@H](CS)C(=O)N[C@@H](Cc1ccc(O)cc1)C(=O)N1CCC[C@H]1C(=O)N[C@@H](CCSC)C(=O)N[C@@H](CCC(=O)O)C(=O)N[C@@H](Cc1c[nH]c2ccccc12)C(=O)N[C@@H](CCCNC(=N)N)C(=O)N[C@@H](CS)C(=O)N[C@@H](CC(=O)O)C(=O)NCC(=O)N[C@@H](Cc1ccccc1)C(=O)N[C@@H](Cc1cnc[nH]1)C(=O)N[C@@H](CC(=O)O)C(=O)N[C@@H](CS)C(=O)N[C@H](C(=O)N[C@@H](CC(=O)O)C(=O)NCC(=O)N[C@@H](CO)C(=O)N[C@@H](CC(=O)O)C(=O)N[C@@H](CCC(=O)O)C(=O)N[C@@H](CCC(N)=O)C(=O)NCC(=O)N[C@@H](CS)C(=O)N1CCC[C@H]1C(=O)N[C@@H](Cc1ccc(O)cc1)C(=O)N[C@@H](CCCNC(=N)N)C(=O)N[C@H](C(=O)O)[C@@H](C)O)C(C)C (H-CPPSYFQCGNINHCYPMEWRCDGFHDCVDGSDEQGCPYRT-OH) | ≤ 1 nM | ≤ 1 nM |
| CC[C@H](C)[C@H](NC(=O)[C@H](CC(=O)O)NC(=O)CNC(=O)[C@H](CC(=O)O)NC(=O)[C@H](CS)NC(=O)[C@H](CC(C)C)NC(=O)[C@H](Cc1ccccc1)NC(=O)[C@H](CO)NC(=O)[C@H](Cc1ccccc1)NC(=O)[C@@H]1CCCN1C(=O)[C@H](Cc1ccccc1)NC(=O)[C@H](CS)NC(=O)[C@@H](NC(=O)[C@H](CCCCN)NC(=O)[C@H](CC(=O)O)NC(=O)[C@H](C)NC(=O)[C@H](CS)NC(=O)[C@H](CCSC)NC(=O)[C@H](Cc1ccccc1)NC(=O)[C@H](CCC(=O)O)NC(=O)[C@H](CC(N)=O)NC(=O)[C@H](CCC(N)=O)NC(=O)[C@@H]1CCCN1C(=O)[C@@H](N)CS)[C@@H](C)O)C(=O)N[C@@H](CC(=O)O)C(=O)N[C@@H](CS)C(=O)N[C@@H](Cc1ccc(O)cc1)C(=O)N[C@@H](CC(=O)O)C(=O)NCC(=O)N[C@@H](CO)C(=O)N[C@@H](CC(=O)O)C(=O)N[C@@H](CCC(=O)O)C(=O)N[C@@H](C)C(=O)N[C@@H](Cc1ccc(O)cc1)C(=O)N[C@@H](CS)C(=O)N1CCC[C@H]1C(=O)N[C@@H](CO)C(=O)N[C@@H](CCCNC(=N)N)C(=O)N[C@H](C(=O)O)[C@@H](C)O (H-CPQNEFMCADKTCFPFSFLCDGDIDCYDGSDEAYCPSRT-OH) | ≤ 1 nM | ≤ 1 nM |
| CSCC[C@H](NC(=O)[C@H](Cc1ccccc1)NC(=O)[C@H](CCC(=O)O)NC(=O)[C@H](CC(N)=O)NC(=O)[C@H](CCCNC(=N)N)NC(=O)[C@@H]1CCCN1C(=O)[C@@H](N)CS)C(=O)N[C@@H](CS)C(=O)N[C@@H](C)C(=O)N[C@@H](CC(=O)O)C(=O)N[C@@H](CCCCN)C(=O)N[C@@H](CCSC)C(=O)N[C@@H](CS)C(=O)N[C@@H](Cc1ccccc1)C(=O)N1CCC[C@H]1C(=O)N[C@H](C(=O)N[C@@H](CO)C(=O)N[C@@H](Cc1ccccc1)C(=O)N[C@@H](CC(C)C)C(=O)N[C@@H](CS)C(=O)N[C@@H](CC(=O)O)C(=O)NCC(=O)N[C@@H](CCC(=O)O)C(=O)N[C@@H](CC(N)=O)C(=O)N[C@@H](CC(=O)O)C(=O)N[C@@H](CS)C(=O)N[C@@H](CCC(=O)O)C(=O)N[C@@H](CC(=O)O)C(=O)NCC(=O)N[C@@H](CO)C(=O)N[C@@H](CC(=O)O)C(=O)N[C@@H](CCC(=O)O)C(=O)N[C@@H](CC(=O)O)C(=O)N[C@@H](Cc1ccc(O)cc1)C(=O)N[C@@H](CS)C(=O)N1CCC[C@H]1C(=O)N[C@@H](CO)C(=O)N[C@@H](CCCNC(=N)N)C(=O)N[C@H](C(=O)O)[C@@H](C)O)C(C)C (H-CPRNEFMCADKMCFPVSFLCDGENDCEDGSDEDYCPSRT-OH) | ≤ 1 nM | ≤ 1 nM |
| CC[C@H](C)[C@H](NC(=O)[C@H](CCCCN)NC(=O)[C@H](CC(=O)O)NC(=O)[C@H](C)NC(=O)[C@H](CS)NC(=O)[C@H](CCSC)NC(=O)[C@H](Cc1ccccc1)NC(=O)[C@H](CCC(=O)O)NC(=O)[C@H](CC(N)=O)NC(=O)[C@H](CO)NC(=O)[C@@H]1CCCN1C(=O)[C@@H](N)CS)C(=O)N[C@@H](CS)C(=O)N[C@@H](Cc1ccccc1)C(=O)N1CCC[C@H]1C(=O)N[C@@H](CC(C)C)C(=O)N[C@@H](CO)C(=O)N[C@@H](Cc1ccccc1)C(=O)N[C@@H](CC(C)C)C(=O)N[C@@H](CS)C(=O)N[C@@H](CC(=O)O)C(=O)NCC(=O)N[C@@H](CCC(=O)O)C(=O)N[C@@H](CC(N)=O)C(=O)N[C@@H](CC(=O)O)C(=O)N[C@@H](CS)C(=O)N[C@@H](CC(C)C)C(=O)N[C@@H](CC(=O)O)C(=O)NCC(=O)N[C@@H](CO)C(=O)N[C@@H](CC(=O)O)C(=O)N[C@@H](CCC(=O)O)C(=O)N[C@@H](CC(=O)O)C(=O)N[C@@H](Cc1ccc(O)cc1)C(=O)N[C@@H](CS)C(=O)N1CCC[C@H]1C(=O)N[C@@H](CO)C(=O)N[C@@H](CCCNC(=N)N)C(=O)N[C@H](C(=O)O)[C@@H](C)O (H-CPSNEFMCADKICFPLSFLCDGENDCLDGSDEDYCPSRT-OH) | ≤ 1 nM | ≤ 1 nM |
